US20220324835A1 (Nurix Therapeutics, Inc., priority 2018, published 2022)
Structures can show the parent of a compound that is named as a salt. Where two headings read alike, the source gives them in different places.

Key:
T-cell [1] = assay: CD25 cell surface staining on T-cells stimulated with anti-CD3 antibody alone (Biological Example 2); type: cell-based, human; details: T-cell; for fold induction at 8 µM: 8 μM Cbl-b inhibitor
T-cell [2] = assay: CD25 cell surface staining on T-cells co-stimulated with anti-CD3 and anti-CD28 antibody (Biological Example 2); type: cell-based, human; details: Homo sapiens, T-cell; for fold induction at 4 µM: 4 μM Cbl-b inhibitor
Procedure, shortened: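 Values are fold-change over baseline: readings (IL-2 release, CD25 staining) from inhibitor-treated T-cells divided against untreated cells […]. No detailed procedure stated.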

T-cell [3] = assay: IL-2 secretion from T-cells stimulated with anti-CD3 antibody alone (Biological Example 2); type: cell-based, human; details: T-cell; for fold induction at 8 µM: 8 μM Cbl-b inhibitor
Cbl-b [4] = target: T1, Cbl-b (Homo sapiens, UniProt Q13191); assay: Cbl-b inhibition assay (Cbl-b activity assay, FRET, Biological Example 1; 100 mM NaCl, 60 nM Src kinase); type: biochemical; details: upper bound stated in text lists; read-out: IC50 values in the Cbl-b inhibition assay of Biological Example 1
Procedure, shortened: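 Inhibitor activity is measured as reduced terbium-to-fluorescein FRET between streptavidin-terbium on biotinylated Cbl-b and Bodipy-fluorescein ubiquitin carried by an irreversible UbcH5B-Ub conjugate, binding of which depends on Src phosphorylation of Cbl-b.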

Cbl-b [5] = target: T1, Cbl-b; assay: Cbl-b activity assay (Cbl-b inhibition assay), TR-FRET of Cbl-b interaction with UbcH5B-Ub; type: biochemical; details: assay buffer with 100 mM NaCl, 60 nM Src kinase; read-out: Cbl-b activity IC50
Procedure, shortened: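 Compound-treated Cbl-b was incubated 1.5 h with Src kinase (60 nM final; 30 nM for asterisked values, which also used 50 mM instead of 100 mM NaCl), 1 mM ATP and 5 mM MgCl2. Binding to fluorescent Ub-loaded UbcH5B (C85K mutant) was then read by TR-FRET after 1 h more.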

[6] = read-out: CD25 staining, Anti-CD3/Anti-CD28 stimulation, fold change over baseline
[7] = fold change over baseline, 1 μM Cbl-b inhibitor, primary human total T-cells, read-out: CD25 staining Anti-CD3 stimulation
[8] = fold change over baseline, primary human total T-cells, read-out: CD25 staining Anti-CD3 stimulation
[9] = fold change over baseline, 0.3 μM Cbl-b inhibitor, primary human total T-cells, read-out: CD25 staining Anti-CD3/Anti-CD28 stimulation
[10] = fold change over baseline, 1 μM Cbl-b inhibitor, primary human total T-cells, read-out: CD25 staining Anti-CD3/Anti-CD28 stimulation
[11] = fold change over baseline, primary human total T-cells, read-out: CD25 staining Anti-CD3/Anti-CD28 stimulation
[12] = fold change over baseline, 1 μM Cbl-b inhibitor, primary human total T-cells, read-out: IL-2 secretion Anti-CD3 stimulation
[13] = fold change over baseline, primary human total T-cells, read-out: IL-2 secretion Anti-CD3 stimulation

T1 sequence (Q13191 36-427): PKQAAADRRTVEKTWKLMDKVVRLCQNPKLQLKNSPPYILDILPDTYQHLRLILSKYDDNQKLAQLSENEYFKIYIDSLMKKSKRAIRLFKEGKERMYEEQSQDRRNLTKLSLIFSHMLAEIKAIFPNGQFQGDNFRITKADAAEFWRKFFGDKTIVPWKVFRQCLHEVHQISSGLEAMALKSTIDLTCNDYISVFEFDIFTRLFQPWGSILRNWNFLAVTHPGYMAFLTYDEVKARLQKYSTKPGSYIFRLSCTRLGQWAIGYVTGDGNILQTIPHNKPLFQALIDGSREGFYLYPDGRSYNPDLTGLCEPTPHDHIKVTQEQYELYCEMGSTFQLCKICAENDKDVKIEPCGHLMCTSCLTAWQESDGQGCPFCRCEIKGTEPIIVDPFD

SMILES	fold induction at 1 µM (T-cell [1]; Homo sapiens, read-out: CD25 staining, Anti-CD3 stimulation, fold change over baseline)	fold induction at 0.3 µM (T-cell [2]; [6])	fold induction at 1 µM (T-cell [2]; [6])	fold induction at 1 µM (T-cell [3]; Homo sapiens, read-out: IL-2 secretion, Anti-CD3 stimulation, fold change over baseline)	IC50 (Cbl-b [4])	IC50 (Cbl-b [5])	fold induction at 1 µM (T-cell [1]; [7])	fold induction at 8 µM (T-cell [1]; [8])	fold induction at 0.3 µM (T-cell [2]; [9])	fold induction at 1 µM (T-cell [2]; [10])	fold induction at 4 µM (T-cell [2]; [11])	fold induction at 1 µM (T-cell [3]; [12])	fold induction at 8 µM (T-cell [3]; [13])
CN1CC2CCC(C1)N2c1cc2c(c(C(F)(F)F)c1)CN(c1cccc(C3(Cc4nncn4C)COC3)c1)C2=O [Compound 386, 2-(3-(3-((4-Methyl-4H-1,2,4-triazol-3-yl)methyl)oxetan-3-yl)phenyl)-6-(3-methyl-3,8-diazabicyclo[3.2.1]octan-8-yl)-4-(trifluoromethyl)isoindolin-1-one]	> 1	1.31 to 1.5	1.31 to 1.5	> 0.201	≤ 100 nM	< 100 nM							
C[C@H](Cc1nncn1C)c1cccc(NC(=O)c2cc(C3CC3)cc(C(F)(F)F)n2)c1 [Compound 191, (R)-4-cyclopropyl-N-(3-(1-(4-methyl-4H-1,2,4-triazol-3-yl)propan-2-yl)phenyl)-6-(trifluoromethyl)picolinamide]					≤ 100 nM	< 100 nM	> 1	> 1	1.31 to 1.5	1.51 to 1.75	1.51 to 1.75	> 0.201	> 0.201
C[C@H](Cc1nncn1C)c1cccc(NC(=O)c2nc3c(C(F)(F)F)cccc3[nH]2)c1 [Compound 196, N-[3-[(1R)-1-methyl-2-(4-methyl-1,2,4-triazol-3-yl)ethyl]phenyl]-4-(trifluoromethyl)-1H-benzimidazole-2-carboxamide]					≤ 100 nM	< 100 nM	> 1	> 1	1.01 to 1.3	1.51 to 1.75	> 1.76	> 0.201	> 0.201
CNc1cc([C@H](C)Cc2nncn2C)cc(N2Cc3c(cccc3C(F)(F)F)C2=O)n1 [Compound 363, (R)-2-(4-(1-(4-methyl-4H-1,2,4-triazol-3-yl)propan-2-yl)-6-(methylamino)pyridin-2-yl)-4-(trifluoromethyl)isoindolin-1-one]					≤ 100 nM	< 100 nM	0.601 to 0.8	> 1	1.01 to 1.3	1.01 to 1.3	1.31 to 1.5	0.051 to 0.1	0.151 to 0.2
C[C@H](Cc1nncn1C)c1cccc(NC(=O)c2cccc(C(C)(C)C)n2)c1 [Compound 321, (R)-6-(Tert-butyl)-N-(3-(1-(4-methyl-4H-1,2,4-triazol-3-yl)propan-2-yl)phenyl)picolinamide]					≤ 100 nM	< 100 nM	0.801 to 1	> 1	1.01 to 1.3	1.01 to 1.3	1.01 to 1.3	0.051 to 0.1	> 0.201
C[C@H](Sc1nncn1C)c1cccc(NC(=O)c2ccc(CO)c(C3CC3)n2)c1 [Compound 89, 6-cyclopropyl-5-(hydroxymethyl)-N-[3-[(1S)-1-[(4-methyl-1,2,4-triazol-3-yl)sulfanyl]ethyl]phenyl]pyridine-2-carboxamide]					≤ 100 nM	< 100 nM	< 0.6	0.801 to 1	1.01 to 1.3	1.01 to 1.3	1.31 to 1.5	< 0.05	0.101 to 0.15
C[C@H](Sc1nncn1C)c1cccc(NC(=O)c2ccc(C#N)c(C3CC3)n2)c1 [Compound 92, 5-cyano-6-cyclopropyl-N-[3-[(1S)-1-[(4-methyl-1,2,4-triazol-3-yl)sulfanyl]ethyl]phenyl]pyridine-2-carboxamide]					≤ 100 nM	< 100 nM	0.601 to 0.8	> 1	1.01 to 1.3	1.31 to 1.5	1.31 to 1.5	< 0.05	0.101 to 0.15
C[C@H](Cc1nncn1C)c1cccc(N2Cc3c(cc(C(=O)N4CC[C@H](O)C4)cc3C3CC3)C2=O)c1 [Compound 277, 4-cyclopropyl-6-((S)-3-hydroxypyrrolidine-1-carbonyl)-2-(3-((R)-1-(4-methyl-4H-1,2,4-triazol-3-yl)propan-2-yl)phenyl)isoindolin-1-one]					≤ 100 nM	< 100 nM	0.801 to 1	> 1	1.01 to 1.3	1.01 to 1.3	1.31 to 1.5	0.051 to 0.1	0.101 to 0.15
C[C@H](Cc1nncn1C)c1cccc(NC(=O)c2cc(O[C@@H]3CC[C@@H](O)C3)ccn2)c1 (relative stereo) [Compound 205, trans-4-(3-hydroxycyclopentyloxy)-N-(3-((R)-1-(4-methyl-4H-1,2,4-triazol-3-yl)propan-2-yl)phenyl)picolinamide]					≤ 100 nM	< 100 nM	0.801 to 1	> 1	1.01 to 1.3	1.01 to 1.3	1.31 to 1.5	0.051 to 0.1	0.101 to 0.15
C[C@H](Cc1nncn1C)c1cccc(NC(=O)c2cc(C(=O)N3CC[C@H](O)C3)cc(C(F)(F)F)n2)c1 [Compound 220, 4-((S)-3-hydroxypyrrolidine-1-carbonyl)-N-(3-((R)-1-(4-methyl-4H-1,2,4-triazol-3-yl)propan-2-yl)phenyl)-6-(trifluoromethyl)picolinamide]					≤ 100 nM	< 100 nM	> 1	> 1	1.31 to 1.5	1.51 to 1.75	> 1.76	> 0.201	> 0.201
C[C@H](Sc1nncn1C)c1cccc(NC(=O)c2cc(C3CC3)cc(C(F)(F)F)n2)c1 [Compound 67, (S)-4-cyclopropyl-N-(3-(1-((4-methyl-4H-1,2,4-triazol-3-yl)thio)ethyl)phenyl)-6-(trifluoromethyl)picolinamide]					≤ 100 nM	< 100 nM	0.801 to 1	> 1	1.01 to 1.3	1.01 to 1.3	1.01 to 1.3	< 0.05	0.101 to 0.15
Cc1cc(C(=O)Nc2cccc([C@H](C)Cc3nncn3C)c2)nc(C2CC2)n1 [Compound 195, (R)-2-cyclopropyl-6-methyl-N-(3-(1-(4-methyl-4H-1,2,4-triazol-3-yl)propan-2-yl)phenyl)pyrimidine-4-carboxamide]					≤ 100 nM	< 100 nM	> 1	> 1	1.51 to 1.75	> 1.76	> 1.76	> 0.201	> 0.201
C[C@H](Cc1nncn1C)c1cccc(NC(=O)c2ccnc(C3CC3)n2)c1 [Compound 199, (R)-2-cyclopropyl-N-(3-(1-(4-methyl-4H-1,2,4-triazol-3-yl)propan-2-yl)phenyl)pyrimidine-4-carboxamide]					≤ 100 nM	< 100 nM	> 1	> 1	1.01 to 1.3	1.31 to 1.5	1.51 to 1.75	> 0.201	> 0.201
C[C@H](Sc1nncn1C)c1cccc(NC(=O)c2cc3cc(OCC(=O)NCCN)ccc3cn2)c1 [Compound 311, 6-[2-(2-aminoethylamino)-2-oxo-ethoxy]-N-[3-[(1S)-1-[(4-methyl-1,2,4-triazol-3-yl)sulfanyl]ethyl]phenyl]isoquinoline-3-carboxamide hydrochloride]					≤ 300 nM	100 to 300 nM	0.601 to 0.8	0.601 to 0.8	< 1	< 1	1.01 to 1.3	< 0.05	< 0.05
